Test results published in ChEMBL document CHEMBL6121044, “Discovery of Novel Spirocyclic MAT2A Inhibitors Demonstrating High In Vivo Efficacy in MTAP-Null Xenograft Models” (J Med Chem, 2025).

Tests used:
[1] = Genotoxicity in Salmonella typhimurium TA98; format: toxicity; details: salmonella enterica subsp. enterica serovar typhimurium
[2] = molecular target: T1, S-adenosylmethionine synthase isoform type-2 (Homo sapiens, UniProt P31153); test: Inhibition of MAT2A (unknown origin) assessed as release of inorganic phosphate using ATP/L-methionine pre-incubated for 30 mins followed by substrate addition measured after 2.5 hrs by colorimetric assay
T1 sequence (P31153 whole entry, canonical isoform): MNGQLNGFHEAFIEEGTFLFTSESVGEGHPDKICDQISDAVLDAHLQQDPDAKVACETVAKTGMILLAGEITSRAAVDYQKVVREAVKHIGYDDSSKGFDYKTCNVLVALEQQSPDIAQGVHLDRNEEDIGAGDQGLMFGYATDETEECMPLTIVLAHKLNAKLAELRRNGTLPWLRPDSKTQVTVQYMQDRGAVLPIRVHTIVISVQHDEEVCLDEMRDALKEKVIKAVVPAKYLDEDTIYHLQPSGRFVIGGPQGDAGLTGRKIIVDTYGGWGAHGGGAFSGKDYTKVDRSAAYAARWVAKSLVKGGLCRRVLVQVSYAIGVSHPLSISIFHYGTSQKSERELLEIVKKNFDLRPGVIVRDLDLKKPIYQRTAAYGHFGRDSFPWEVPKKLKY

[3] = Genotoxicity in Salmonella typhimurium TA97a; format: toxicity; details: salmonella enterica subsp. enterica serovar typhimurium
[4] = AUCinf in male ICR mouse at 10 mg/kg, po measured upto 24 hrs by LC-MS/MS analysis; format: ADME, organism-based; details: in vivo
[5] = Microsomal metabolic stability in human liver microsomes assessed as clearance; format: ADME, Microsome; details: read-out: CLH
[6] = Hepatic metabolic stability in dog hepatocyte assessed as half life; format: ADME, cell-based, Canis lupus familiaris; details: hepatocytes
[7] = Plasma protein binding in dog assessed as unbound fraction; format: ADME, cell-free, Canis lupus familiaris
[8] = Plasma protein binding in mouse assessed as unbound fraction; format: ADME, cell-free
[9] = Oral bioavailability in male ICR mouse at 10 mg/kg measured upto 24 hrs by LC-MS/MS analysis; format: ADME, organism-based; details: in vivo
[10] = AUCinf in male ICR mouse at 2 mg/kg, iv measured upto 24 hrs by LC-MS/MS analysis; format: ADME, organism-based; details: in vivo
[11] = AUCinf in beagle dog at 2 mg/kg, iv measured upto 24 hrs upto 24 hrs by LC-MS/MS analysis; format: ADME, organism-based, Canis lupus familiaris; details: in vivo
[12] = Half life in male Sprague-Dawley rat at 10 mg/kg, po measured upto 24 hrs upto 24 hrs by LC-MS/MS analysis; format: ADME, organism-based; details: in vivo
[13] = Clearance rate in beagle dog at 2 mg/kg, iv measured upto 24 hrs upto 24 hrs by LC-MS/MS analysis; format: ADME, organism-based, Canis lupus familiaris; details: in vivo
[14] = Plasma protein binding in rat assessed as unbound fraction; format: ADME, cell-free
[15] = Plasma protein binding in human assessed as unbound fraction; format: ADME, cell-free
[16] = Lipophilicity, log D of compound at pH 7.4 byHPLC method; format: physicochemical; details: buffer
[17] = system: HCT-116; test: Antiproliferative activity against wild type human HCT-116 cells measured after 5 days by CTG assay; format: functional, cell-based; details: HCT-116, 120 h
[18] = Genotoxicity in Salmonella typhimurium TA102; format: toxicity; details: salmonella enterica subsp. enterica serovar typhimurium
[19] = Half life in male ICR mouse at 10 mg/kg, po and 2 mg/kg, iv measured upto 24 hrs; format: ADME, organism-based; details: in vivo
[20] = Half life in male Sprague-Dawley rat at 2 mg/kg, iv measured upto 24 hrs upto 24 hrs by LC-MS/MS analysis; format: ADME, organism-based; details: in vivo
[21] = Microsomal metabolic stability in human liver microsomes assessed as half life; format: ADME, Microsome
[22] = molecular target: Voltage-gated inwardly rectifying potassium channel KCNH2 (Homo sapiens, UniProt Q12809); test: Inhibition of hERG; format: toxicity
Chain of Voltage-gated inwardly rectifying potassium channel KCNH2 (Q12809 whole entry): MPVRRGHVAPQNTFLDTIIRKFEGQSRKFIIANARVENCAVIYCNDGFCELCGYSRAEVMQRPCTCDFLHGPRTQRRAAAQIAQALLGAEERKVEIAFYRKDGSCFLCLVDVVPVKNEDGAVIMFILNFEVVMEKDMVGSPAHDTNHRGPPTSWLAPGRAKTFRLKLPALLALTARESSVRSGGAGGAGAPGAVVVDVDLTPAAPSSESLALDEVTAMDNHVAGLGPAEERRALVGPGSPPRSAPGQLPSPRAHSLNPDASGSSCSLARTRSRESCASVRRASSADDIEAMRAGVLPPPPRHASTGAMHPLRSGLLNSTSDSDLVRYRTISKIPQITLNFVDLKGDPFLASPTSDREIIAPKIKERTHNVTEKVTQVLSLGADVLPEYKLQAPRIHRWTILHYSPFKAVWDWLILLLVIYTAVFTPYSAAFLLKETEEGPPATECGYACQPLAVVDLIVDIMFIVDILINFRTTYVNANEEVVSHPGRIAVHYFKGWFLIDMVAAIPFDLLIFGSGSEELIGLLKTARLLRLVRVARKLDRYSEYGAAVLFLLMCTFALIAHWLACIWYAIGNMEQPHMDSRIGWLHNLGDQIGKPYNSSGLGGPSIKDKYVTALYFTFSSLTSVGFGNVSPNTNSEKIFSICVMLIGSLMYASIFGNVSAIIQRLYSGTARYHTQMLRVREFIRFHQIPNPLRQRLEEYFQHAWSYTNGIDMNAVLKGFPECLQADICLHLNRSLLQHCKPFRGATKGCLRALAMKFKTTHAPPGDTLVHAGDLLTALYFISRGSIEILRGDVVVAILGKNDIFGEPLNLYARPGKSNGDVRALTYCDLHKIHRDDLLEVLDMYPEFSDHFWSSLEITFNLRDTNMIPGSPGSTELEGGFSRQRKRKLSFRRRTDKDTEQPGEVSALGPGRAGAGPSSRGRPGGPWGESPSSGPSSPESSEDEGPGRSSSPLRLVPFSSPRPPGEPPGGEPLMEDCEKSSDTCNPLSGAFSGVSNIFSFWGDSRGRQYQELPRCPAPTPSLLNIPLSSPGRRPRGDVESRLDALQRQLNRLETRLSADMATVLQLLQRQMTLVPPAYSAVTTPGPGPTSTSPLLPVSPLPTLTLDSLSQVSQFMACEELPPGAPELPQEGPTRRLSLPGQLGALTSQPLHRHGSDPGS

[23] = AUCinf in beagle dog at 10 mg/kg, po measured upto 24 hrs upto 24 hrs by LC-MS/MS analysis; format: ADME, organism-based, Canis lupus familiaris; details: in vivo
[24] = Clearance rate in male ICR mouse at 2 mg/kg, iv measured upto 24 hrs by LC-MS/MS analysis; format: ADME, organism-based; details: in vivo
[25] = Oral bioavailability in beagle dog at 10 mg/kg measured upto 24 hrs upto 24 hrs by LC-MS/MS analysis; format: ADME, organism-based, Canis lupus familiaris; details: in vivo
[26] = AUCinf in male Sprague-Dawley rat at 2 mg/kg, iv measured upto 24 hrs upto 24 hrs by LC-MS/MS analysis; format: ADME, organism-based; details: in vivo
[27] = molecular target: Cytochrome P450 3A4 (Homo sapiens, UniProt P08684); test: Inhibition of CYP3A4 (unknown origin); format: ADME
Chain of Cytochrome P450 3A4 (P08684 whole entry): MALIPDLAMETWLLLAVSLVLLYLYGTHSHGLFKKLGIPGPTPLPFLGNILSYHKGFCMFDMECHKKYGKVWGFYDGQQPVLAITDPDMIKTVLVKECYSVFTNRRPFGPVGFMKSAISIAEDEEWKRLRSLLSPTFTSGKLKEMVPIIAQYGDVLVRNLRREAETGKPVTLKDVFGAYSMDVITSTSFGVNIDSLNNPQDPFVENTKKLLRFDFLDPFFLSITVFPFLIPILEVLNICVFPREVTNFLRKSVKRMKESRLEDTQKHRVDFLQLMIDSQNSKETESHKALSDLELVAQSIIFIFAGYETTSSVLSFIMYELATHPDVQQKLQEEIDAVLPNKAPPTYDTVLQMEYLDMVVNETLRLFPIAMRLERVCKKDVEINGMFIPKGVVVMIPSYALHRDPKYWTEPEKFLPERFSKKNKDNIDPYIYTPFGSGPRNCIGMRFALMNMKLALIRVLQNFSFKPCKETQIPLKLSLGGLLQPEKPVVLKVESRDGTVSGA

[28] = Genotoxicity in Salmonella typhimurium TA100; format: toxicity; details: salmonella enterica subsp. enterica serovar typhimurium
[29] = Microsomal metabolic stability in rat liver microsomes assessed as half life; format: ADME, Microsome
[30] = Hepatic metabolic stability in rat hepatocyte assessed as half life; format: ADME, cell-based; details: hepatocytes
[31] = Volume of distribution at steady state in beagle dog at 2 mg/kg, iv measured upto 24 hrs upto 24 hrs by LC-MS/MS analysis; format: ADME, organism-based, Canis lupus familiaris; details: in vivo, read-out: Vdss
[32] = Microsomal metabolic stability in mouse liver microsomes assessed as clearance; format: ADME, Microsome; details: read-out: CLH
[33] = Oral bioavailability in male Sprague-Dawley rat at 10 mg/kg measured upto 24 hrs upto 24 hrs by LC-MS/MS analysis; format: ADME, organism-based; details: in vivo
[34] = Volume of distribution at steady state in male Sprague-Dawley rat at 2 mg/kg, iv measured upto 24 hrs upto 24 hrs by LC-MS/MS analysis; format: ADME, organism-based; details: in vivo
[35] = molecular target: Cytochrome P450 2C19 (Homo sapiens, UniProt P33261); test: Inhibition of CYP2C19 (unknown origin); format: ADME
Chain of Cytochrome P450 2C19 (P33261 whole entry, canonical isoform): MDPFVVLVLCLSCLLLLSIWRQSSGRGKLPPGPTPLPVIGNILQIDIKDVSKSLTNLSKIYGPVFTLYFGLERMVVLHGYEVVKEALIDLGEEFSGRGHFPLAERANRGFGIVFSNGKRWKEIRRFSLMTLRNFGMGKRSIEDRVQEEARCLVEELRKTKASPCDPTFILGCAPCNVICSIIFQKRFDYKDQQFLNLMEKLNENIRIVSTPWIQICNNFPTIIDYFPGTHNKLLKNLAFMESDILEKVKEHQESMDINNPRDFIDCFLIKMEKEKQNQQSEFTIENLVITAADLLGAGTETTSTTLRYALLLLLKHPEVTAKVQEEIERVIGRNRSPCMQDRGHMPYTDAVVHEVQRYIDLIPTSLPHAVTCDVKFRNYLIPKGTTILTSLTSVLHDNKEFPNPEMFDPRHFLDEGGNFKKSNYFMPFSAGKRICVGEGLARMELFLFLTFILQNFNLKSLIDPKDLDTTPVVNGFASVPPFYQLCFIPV

[36] = molecular target: T1, S-adenosylmethionine synthase isoform type-2; test: Inhibition of MAT2A in MTAP-knock out human HCT-116 cells assessed as inhibition of PRMT5-mediated symmetric […]-arginine (SDMA) level; format: cell-based
[37] = system: HCT-116; test: Antiproliferative activity against MTAP-knock out human HCT-116 cells assessed as proliferation inhibition rate measured after 5 days by CTG assay; format: functional, cell-based; details: HCT-116, 120 h
[38] = molecular target: T1, S-adenosylmethionine synthase isoform type-2; test: Inhibition of MAT2A in wild type human HCT-116 cells assessed as inhibition of PRMT5-mediated symmetric […]-arginine (SDMA) level; format: cell-based
[39] = molecular target: T2, Cytochrome P450 2C8 (Homo sapiens, UniProt P10632); test: Inhibition of CYP2C8 (unknown origin); format: ADME
T2 sequence (P10632 whole entry): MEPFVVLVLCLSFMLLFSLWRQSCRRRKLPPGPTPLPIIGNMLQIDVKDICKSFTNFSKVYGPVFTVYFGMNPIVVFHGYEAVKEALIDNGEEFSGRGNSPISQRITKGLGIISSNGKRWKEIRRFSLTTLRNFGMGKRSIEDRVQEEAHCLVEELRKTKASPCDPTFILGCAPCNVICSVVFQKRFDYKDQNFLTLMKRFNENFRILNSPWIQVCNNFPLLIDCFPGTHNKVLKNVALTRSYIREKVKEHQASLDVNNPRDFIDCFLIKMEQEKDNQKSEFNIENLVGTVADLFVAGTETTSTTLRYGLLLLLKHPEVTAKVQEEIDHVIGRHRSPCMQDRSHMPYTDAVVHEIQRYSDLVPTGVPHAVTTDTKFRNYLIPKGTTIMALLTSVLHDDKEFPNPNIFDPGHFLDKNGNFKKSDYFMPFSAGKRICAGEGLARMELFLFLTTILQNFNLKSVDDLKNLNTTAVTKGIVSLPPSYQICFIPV

[40] = AUCinf in male Sprague-Dawley rat at 10 mg/kg, po measured upto 24 hrs upto 24 hrs by LC-MS/MS analysis; format: ADME, organism-based; details: in vivo
[41] = Half life in beagle dog at 10 mg/kg, po measured upto 24 hrs upto 24 hrs by LC-MS/MS analysis; format: ADME, organism-based, Canis lupus familiaris; details: in vivo
[42] = Genotoxicity in Salmonella typhimurium TA1535; format: toxicity; details: salmonella enterica subsp. enterica serovar typhimurium
[43] = Cmax in beagle dog at 10 mg/kg, po measured upto 24 hrs upto 24 hrs by LC-MS/MS analysis; format: ADME, organism-based, Canis lupus familiaris; details: in vivo
[44] = Cmax in male ICR mouse at 10 mg/kg, po measured upto 24 hrs by LC-MS/MS analysis; format: ADME, organism-based; details: in vivo
[45] = molecular target: Cytochrome P450 2C9 (Homo sapiens, UniProt P11712); test: Inhibition of CYP2C9 (unknown origin); format: ADME
Chain of Cytochrome P450 2C9 (P11712 whole entry): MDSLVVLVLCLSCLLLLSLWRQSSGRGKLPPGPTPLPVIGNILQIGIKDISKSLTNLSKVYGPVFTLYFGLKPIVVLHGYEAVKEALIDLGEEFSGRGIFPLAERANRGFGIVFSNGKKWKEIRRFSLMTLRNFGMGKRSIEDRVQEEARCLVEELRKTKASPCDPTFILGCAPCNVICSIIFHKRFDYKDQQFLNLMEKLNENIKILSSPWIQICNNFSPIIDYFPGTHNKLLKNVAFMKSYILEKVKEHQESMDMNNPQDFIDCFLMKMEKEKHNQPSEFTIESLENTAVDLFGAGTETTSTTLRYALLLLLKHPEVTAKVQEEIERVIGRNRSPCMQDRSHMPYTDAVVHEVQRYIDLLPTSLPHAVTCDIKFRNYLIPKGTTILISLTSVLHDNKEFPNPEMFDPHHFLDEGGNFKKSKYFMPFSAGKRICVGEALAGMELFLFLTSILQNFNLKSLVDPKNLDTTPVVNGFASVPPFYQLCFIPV

## [2H]C([2H])([2H])NC1=NC(=O)[C@]2(CCc3ncccc32)c2cc(C(F)(F)F)ccc21
[1]
  Activity: Non-toxic
[2]
  IC50: 0.004 µM
[3]
  Activity: Non-toxic
[4]
  AUC(0-inf): 35800 ng·h/mL
[5]
  CLint scaled: < 9.3 mL/min/kg
[6]
  half-life: > 3.61 h
[7]
  fraction unbound: 0.497
[8]
  fraction unbound: 0.276
[9]
  bioavailability: 97%
[10]
  AUC(0-inf): 4190 ng·h/mL
[11]
  AUC(0-inf): 2610 ng·h/mL
[12]
  half-life: 2.4 h
[13]
  clearance: 6.95 mL/min/kg
[14]
  fraction unbound: 0.412
[15]
  fraction unbound: 0.758
[16]
  logD: 1.81
[17]
  IC50: 0.68 µM
[18]
  Activity: Non-toxic
[19]
  half-life: 2.17 h
[20]
  t1/2: 2.35 h
[21]
  half-life: > 3.1 h
[22]
  IC50: > 40 µM
[23]
  AUC(0-inf): 13600 ng·h/mL
[24]
  clearance: 7.98 mL/min/kg
[25]; beagle
  bioavailability: 130%
[26]; male, Sprague-Dawley
  AUC(0-inf): 4990 ng·h/mL
[27]
  IC50: > 10 µM
[28]
  Activity: Non-toxic
[29]
  half-life: > 3.1 h
[30]
  half-life: > 3.61 h
[31]
  Vd: 1.14 L/kg
[32]
  CLint scaled: < 29.3 mL/min/kg
[33]; po, 10 mg/kg, 24 h
  F: 171%
[34]
  Vdss: 1.84 L/kg
[35]
  IC50: > 10 µM
[36]
  IC50: 0.001 µM
[37]
  IC50: 0.058 µM
[38]
  IC50: > 3 µM
[39]
  IC50: > 10 µM
[40]
  AUC(0-inf): 24300 ng·h/mL
[41]
  half-life: 6.09 h
[42]
  Activity: Non-toxic
[43]
  Cmax: 1660 ng/mL
[44]
  Cmax: 5420 ng/mL
[45]
  IC50: > 10 µM

## [2H]C([2H])([2H])NC1=NC(=O)[C@]2(CCc3ncccc32)c2cc(C(C)(F)F)ccc21
[1]
  Activity: Non-toxic
[2]
  IC50: 0.004 µM
[3]
  Activity: Non-toxic
[4]
  AUC(0-inf): 24900 ng·h/mL
[5]
  CLint scaled: < 9.3 mL/min/kg
[6]
  half-life: > 3.61 h
[7]
  fraction unbound: 0.456
[8]
  fraction unbound: 0.345
[9]
  bioavailability: 132%
[10]
  AUC(0-inf): 3660 ng·h/mL
[11]
  AUC(0-inf): 1860 ng·h/mL
[12]
  half-life: 2.35 h
[13]
  clearance: 15.3 mL/min/kg
[14]
  fraction unbound: 0.373
[15]
  fraction unbound: 0.676
[16]
  logD: 1.59
[17]
  IC50: > 10 µM
[18]
  Activity: Non-toxic
[19]
  half-life: 2.24 h
[20]
  t1/2: 2.03 h
[21]
  half-life: > 3.1 h
[22]
  IC50: > 40 µM
[23]
  AUC(0-inf): 12300 ng·h/mL
[24]
  clearance: 9.12 mL/min/kg
[25]; po, 10 mg/kg, 24 h
  F: 165%
[26]; iv, 2 mg/kg, 24 h
  AUC: 2212 ng·h/mL
[27]
  IC50: > 10 µM
[28]
  Activity: Non-toxic
[29]
  half-life: > 3.1 h
[30]
  half-life: > 3.61 h
[31]
  Vd: 1.14 L/kg
[32]
  CLint scaled: 37 mL/min/kg
[33]; male, Sprague-Dawley
  bioavailability: 135%
[34]
  Vdss: 1.95 L/kg
[35]
  IC50: > 10 µM
[36]
  IC50: 0.002 µM
[37]
  IC50: 0.047 µM
[38]
  IC50: > 3 µM
[39]
  IC50: > 10 µM
[40]
  AUC(0-inf): 14500 ng·h/mL
[41]
  half-life: 4.47 h
[42]
  Activity: Non-toxic
[43]
  Cmax: 2140 ng/mL
[44]
  Cmax: 5820 ng/mL
[45]
  IC50: > 10 µM
